Legend:
Type in all cases: biochemical
PAK1 [1] = target: T1, PAK1 (Homo sapiens, UniProt Q13153); assay: Additional in vitro PAK1 inhibition assay at ATP 10 uM and 1 mM
Experimental: (§1) Similar in vitro PAK1 and PAK-4 inhibition assays are conducted in compounds for the treatment of cancer, but under ATP concentrations of 10 uM and 1 mM.

PAK4 [2] = target: T2, PAK4 (Homo sapiens, UniProt O96013); assay: Additional in vitro PAK-4 inhibition assay at ATP 10 uM and 1 mM; settings: 10 μM ATP; read-out: PAK4 IC50 (10 μM ATP)
T2 sequence (O96013 whole entry): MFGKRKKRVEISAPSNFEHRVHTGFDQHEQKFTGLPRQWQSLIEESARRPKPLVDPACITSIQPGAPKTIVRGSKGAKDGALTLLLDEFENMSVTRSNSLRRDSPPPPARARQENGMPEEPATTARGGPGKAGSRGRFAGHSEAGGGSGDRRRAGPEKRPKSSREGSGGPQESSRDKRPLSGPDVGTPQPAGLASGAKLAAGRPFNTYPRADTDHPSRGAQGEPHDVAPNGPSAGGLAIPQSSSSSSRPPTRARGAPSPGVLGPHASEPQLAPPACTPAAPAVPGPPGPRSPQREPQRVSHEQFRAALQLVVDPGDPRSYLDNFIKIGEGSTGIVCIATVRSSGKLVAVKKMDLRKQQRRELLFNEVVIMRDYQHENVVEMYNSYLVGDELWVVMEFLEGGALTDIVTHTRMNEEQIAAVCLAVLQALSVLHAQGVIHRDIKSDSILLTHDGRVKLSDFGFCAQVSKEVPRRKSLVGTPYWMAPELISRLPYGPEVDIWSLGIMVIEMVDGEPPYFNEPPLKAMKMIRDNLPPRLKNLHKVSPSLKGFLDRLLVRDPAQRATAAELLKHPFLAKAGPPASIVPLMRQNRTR
Experimental: as §1

PAK4 [3] = target: T2, PAK4; assay: In vitro PAK inhibition assay (Z'-LYTE, SelectScreen), PAK4
In short: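 Z'-LYTE FRET assay with 0.1-0.75 ng PAK-4 and 2 μM Ser/Thr 20 peptide in 50 mM HEPES pH 7.5, 10 mM MgCl2, 1 mM EGTA, 0.01% BRIJ-35, 1% DMSO; ATP near apparent Km. 1 h kinase reaction at room temperature, then 1 h development; IC50 from 10-point 3-fold titrations fitted to a sigmoidal dose-response.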

PAK1 [4] = target: T1, PAK1; assay: In vitro PAK inhibition assay (Z'-LYTE, SelectScreen), PAK1; settings: read-out: PAK1 IC50
In short: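 The PAK1 reaction on Ser/Thr 19 peptide runs 60 min at room temperature in 50 mM HEPES pH 7.5 with 10 mM MgCl2, 1 mM EGTA, 0.01% BRIJ-35; Z'-LYTE fluorescence read after 60 min development.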

PAK2 (PAK65) = PAK2 (PAK65) (Homo sapiens, UniProt Q13177); assay: In vitro PAK inhibition assay (Z'-LYTE, SelectScreen), PAK2; settings: read-out: PAK2 IC50
PAK2 (PAK65), sequence (Q13177 whole entry): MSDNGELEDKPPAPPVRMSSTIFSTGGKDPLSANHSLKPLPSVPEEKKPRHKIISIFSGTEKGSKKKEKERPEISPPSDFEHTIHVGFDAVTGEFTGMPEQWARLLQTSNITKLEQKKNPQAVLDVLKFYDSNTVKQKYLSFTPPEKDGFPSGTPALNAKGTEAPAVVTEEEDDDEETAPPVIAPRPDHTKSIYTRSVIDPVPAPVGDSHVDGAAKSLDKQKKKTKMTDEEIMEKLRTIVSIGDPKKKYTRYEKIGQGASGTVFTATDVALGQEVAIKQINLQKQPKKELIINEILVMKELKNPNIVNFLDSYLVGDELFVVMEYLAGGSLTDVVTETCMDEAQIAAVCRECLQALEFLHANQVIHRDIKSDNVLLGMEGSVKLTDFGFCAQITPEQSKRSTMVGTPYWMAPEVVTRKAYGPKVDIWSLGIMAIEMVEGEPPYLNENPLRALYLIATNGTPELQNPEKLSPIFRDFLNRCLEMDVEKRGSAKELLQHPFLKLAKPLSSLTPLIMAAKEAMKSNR
In short: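 Z'-LYTE FRET readout using Ser/Thr 20 peptide (2 μM) with 0.29–6 ng PAK2 in 50 mM HEPES pH 7.5, 0.01% BRIJ-35, 10 mM MgCl2, 1 mM EGTA, 1% DMSO. Reaction and development each ran 60 min at room temperature.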

PAK3 = PAK3 (Homo sapiens, UniProt O75914); assay: In vitro PAK inhibition assay (Z'-LYTE, SelectScreen), PAK3; settings: read-out: PAK3 IC50
PAK3, sequence (O75914 1-544 isoform O75914-2): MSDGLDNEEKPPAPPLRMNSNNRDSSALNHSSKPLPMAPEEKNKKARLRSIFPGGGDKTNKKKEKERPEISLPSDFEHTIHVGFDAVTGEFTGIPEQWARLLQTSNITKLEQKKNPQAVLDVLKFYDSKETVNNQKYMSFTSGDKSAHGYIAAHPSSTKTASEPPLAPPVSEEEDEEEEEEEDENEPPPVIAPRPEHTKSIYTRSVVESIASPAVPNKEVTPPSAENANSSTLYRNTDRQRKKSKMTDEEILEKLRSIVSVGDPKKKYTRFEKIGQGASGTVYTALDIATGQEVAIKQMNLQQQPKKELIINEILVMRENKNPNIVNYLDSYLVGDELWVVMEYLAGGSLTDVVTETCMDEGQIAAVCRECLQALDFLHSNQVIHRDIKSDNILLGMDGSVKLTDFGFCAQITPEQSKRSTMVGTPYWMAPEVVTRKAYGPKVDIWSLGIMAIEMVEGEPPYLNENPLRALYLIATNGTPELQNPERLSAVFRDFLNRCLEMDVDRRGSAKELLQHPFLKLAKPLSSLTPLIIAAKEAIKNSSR
In short: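 Z'-LYTE FRET format: PAK3 with Ser/Thr 20 peptide in 50 mM HEPES pH 7.5, 0.01% BRIJ-35, 10 mM MgCl2, 1 mM EGTA, 1% DMSO final. Kinase reaction 60 min at room temperature, then 60 min development and fluorescence read.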

[5] = 10 μM ATP, read-out: PAK1 IC50 (10 μM ATP)
[6] = 1 mM ATP, read-out: PAK1 IC50 (1 mM ATP)

T1 sequence (Q13153 whole entry): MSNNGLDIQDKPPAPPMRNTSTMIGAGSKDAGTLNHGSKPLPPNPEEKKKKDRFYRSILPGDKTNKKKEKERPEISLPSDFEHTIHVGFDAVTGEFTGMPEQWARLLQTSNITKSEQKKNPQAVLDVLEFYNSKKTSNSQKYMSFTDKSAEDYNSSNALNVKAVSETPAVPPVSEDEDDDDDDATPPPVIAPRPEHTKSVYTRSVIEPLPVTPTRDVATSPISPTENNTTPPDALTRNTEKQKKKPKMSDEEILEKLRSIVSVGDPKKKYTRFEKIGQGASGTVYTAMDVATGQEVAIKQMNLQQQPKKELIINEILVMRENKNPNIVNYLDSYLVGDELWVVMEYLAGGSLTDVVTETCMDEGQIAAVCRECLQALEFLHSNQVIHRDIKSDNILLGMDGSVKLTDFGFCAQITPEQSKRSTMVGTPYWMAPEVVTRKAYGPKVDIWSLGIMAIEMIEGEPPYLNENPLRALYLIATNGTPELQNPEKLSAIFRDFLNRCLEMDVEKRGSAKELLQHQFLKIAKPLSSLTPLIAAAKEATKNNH

Row | SMILES | IC50 (PAK1 [1]; [5]) | IC50 (PAK1 [1]; [6]) | IC50 (PAK4 [2]) | IC50 (PAK4 [3]) | IC50 (PAK1 [4]) | IC50 (PAK2 (PAK65)) | IC50 (PAK3)
1 | CCCCNc1ncc2cc(-c3ccc(-c4noc(C)n4)cc3Cl)c(=O)n(CC)c2n1 | 500 to 5000 nM | ≥ 5000 nM | ≥ 5000 nM |  |  |  | 
2 | Cc1nc(-c2ccc(-c3cc4cnc(NC5CCOCC5)nc4n(C4CCOCC4)c3=O)c(Cl)c2)no1 | 50 to 500 nM | ≥ 5000 nM | ≥ 5000 nM |  |  |  | 
3 | Cc1nc(-c2ccc(-c3cc4cnc(NC5CCOCC5)nc4n(CC(=O)NC4CCCNC4)c3=O)c(Cl)c2)no1 (stereo not shown) | 50 to 500 nM | ≥ 5000 nM | ≥ 5000 nM |  |  |  | 
4 | CCn1c(=O)c(-c2ccc(-c3noc(C)n3)cc2Cl)cc2cnc(NC3(C)CC3)nc21 | 500 to 5000 nM | ≥ 5000 nM | ≥ 5000 nM |  |  |  | 
5 | CCNc1ncc2cc(-c3ccc(-c4noc(C)n4)cc3Cl)c(=O)n(CC)c2n1 | 500 to 5000 nM | ≥ 5000 nM | ≥ 5000 nM |  |  |  | 
6 | Cc1nc(-c2ccc(-c3cc4cnc(NC5CCOCC5)nc4n(CC(=O)NC4CCNC4)c3=O)c(Cl)c2)no1 (stereo not shown) [drawing 346] | 50 to 500 nM | ≥ 5000 nM | ≥ 5000 nM |  |  |  | 
7 | Cc1nc(-c2ccc(-c3cc4cnc(NC5CCOCC5)nc4n(CC(=O)N4CCC(CN)CC4)c3=O)c(Cl)c2)no1 [drawing 352] | < 50 nM | ≥ 5000 nM | ≥ 5000 nM |  |  |  | 
8 | CCn1c(=O)c(-c2ccc(-c3noc(C)n3)cc2Cl)cc2cnc(NCC(=O)N(C)C)nc21 | ≥ 5000 nM | ≥ 5000 nM | 50 to 500 nM |  |  |  | 
9 | Cc1nc(-c2ccc(-c3cc4cnc(NC5CCOCC5)nc4n(C4CCN(C5CCNCC5)C4)c3=O)c(Cl)c2)no1 (stereo not shown) | 50 to 500 nM | ≥ 5000 nM | ≥ 5000 nM |  |  |  | 
10 | Cc1nc(-c2ccc(-c3cc4cnc(NC5CCOCC5)nc4n(Cc4ccc(CCN)cc4)c3=O)c(Cl)c2)no1 [drawing 338] | < 50 nM | 500 to 5000 nM | ≥ 5000 nM |  |  |  | 
11 | Cc1nc(-c2ccc(-c3cc4cnc(NC5CCOCC5)nc4n(Cc4c(F)cccc4C(F)(F)F)c3=O)c(Cl)c2)no1 | 50 to 500 nM | 500 to 5000 nM | ≥ 5000 nM |  |  |  | 
12 | Cc1nc(-c2ccc(-c3cc4cnc(NC5CCOCC5)nc4n(CC(=O)NCc4ccncc4)c3=O)c(Cl)c2)no1 [drawing 348] | 50 to 500 nM | ≥ 5000 nM | ≥ 5000 nM |  |  |  | 
13 | CCn1c(=O)c(-c2ccc(-c3noc(C)n3)cc2Cl)cc2cnc(NC3CCC(=O)NC3)nc21 (stereo not shown) | 500 to 5000 nM | ≥ 5000 nM | ≥ 5000 nM |  |  |  | 
14 | CCn1c(=O)c(-c2ccc(-c3noc(C)n3)cc2Cl)cc2cnc(NCc3ccccn3)nc21 | 500 to 5000 nM | ≥ 5000 nM | ≥ 5000 nM |  |  |  | 
15 | Cc1nc(-c2ccc(-c3cc4cnc(NC5CCOCC5)nc4n(Cc4ccc(CN)cc4)c3=O)c(Cl)c2)no1 [drawing 341] | < 50 nM | 50 to 500 nM | ≥ 5000 nM |  |  |  | 
16 | CCn1c(=O)c(-c2ccc(-c3noc(C)n3)cc2Cl)cc2cnc(NCCC3CCN(C)CC3)nc21 [drawing 361] | 50 to 500 nM | ≥ 5000 nM | ≥ 5000 nM |  |  |  | 
17 | CCn1c(=O)c(-c2ccc(-c3noc(C)n3)cc2Cl)cc2cnc(NC(C)C)nc21 | 500 to 5000 nM | ≥ 5000 nM | ≥ 5000 nM |  |  |  | 
18 | Cc1nc(-c2ccc(-c3cc4cnc(NC5CCOCC5)nc4n(Cc4ccc5c(c4)CNC5)c3=O)c(Cl)c2)no1 | 50 to 500 nM | ≥ 5000 nM | ≥ 5000 nM |  |  |  | 

Row | SMILES | IC50 (PAK1 [1]; [5]) | IC50 (PAK1 [1]; [6]) | IC50 (PAK4 [2]) | IC50 (PAK4 [3]) | IC50 (PAK1 [4]) | IC50 (PAK2 (PAK65)) | IC50 (PAK3)
19 | Cc1nc(-c2ccc(-c3cc4cnc(NC5CCOCC5)nc4n(Cc4cccc(CCN)c4)c3=O)c(Cl)c2)no1 [drawing 339] | < 50 nM | 50 to 500 nM | ≥ 5000 nM |  |  |  | 
20 | Cc1nc(-c2ccc(-c3cc4cnc(NC5CCNC(=O)C5)nc4n(Cc4c(F)cccc4C(F)(F)F)c3=O)c(Cl)c2)no1 (stereo not shown) [drawing 354] | < 50 nM | 500 to 5000 nM | ≥ 5000 nM |  |  |  | 
21 | CCn1c(=O)c(-c2ccc(-c3noc(C)n3)cc2Cl)cc2cnc(NC3CCNC3=O)nc21 (stereo not shown) | ≥ 5000 nM | ≥ 5000 nM | ≥ 5000 nM |  |  |  | 
22 | CCn1c(=O)c(-c2ccc(-c3noc(C)n3)cc2Cl)cc2cnc(NCC3CCCO3)nc21 (stereo not shown) | 500 to 5000 nM | ≥ 5000 nM | ≥ 5000 nM |  |  |  | 
23 | Cc1cncc(-c2ccc(-c3cc4cnc(NC5CC5)nc4n([C@H]4CC[C@H](N)CC4)c3=O)c(Cl)c2)n1 [Example 112] |  |  |  | 500 to 5000 nM | < 50 nM | < 50 nM | < 50 nM
24 | CCn1c(=O)c(-c2ccc(-c3nccnc3C)cc2Cl)cc2cnc(NCCC3CCN(C)CC3)nc21 [Example 91] |  |  |  | > 5000 nM | < 50 nM | < 50 nM | 50 to 500 nM
25 | CCn1c(=O)c(-c2ccc(-c3nccnc3C)cc2Cl)cc2cnc(NC3CCN(C(C)=O)C3)nc21 (stereo not shown) [Example 19] |  |  |  | > 5000 nM | 50 to 500 nM | 50 to 500 nM | 500 to 5000 nM
26 | Cc1cncc(-c2ccc(-c3cc4cnc(N[C@H]5CCOC5)nc4n(CCCN)c3=O)c(Cl)c2)n1 [Example 98] |  |  |  | > 5000 nM | < 50 nM | < 50 nM | < 50 nM
27 | Cc1cncc(-c2ccc(-c3cc4cnc(N[C@H]5CCOC5)nc4n([C@H]4CC[C@H](N)CC4)c3=O)c(Cl)c2)n1 [Example 110] |  |  |  | > 5000 nM | < 50 nM | < 50 nM | < 50 nM
28 | CCn1c(=O)c(-c2ccc(-c3noc(C)n3)cc2Cl)cc2cnc(NC3CCOCC3)nc21 [Example 4] |  |  |  | > 5000 nM | 50 to 500 nM | 50 to 500 nM | 50 to 500 nM
29 | CCn1c(=O)c(-c2ccc(-c3cncc(C)n3)cc2Cl)cc2cnc(N[C@H]3CC[C@H](N)CC3)nc21 [Example 85] |  |  |  | > 5000 nM | < 50 nM | < 50 nM | 50 to 500 nM
30 | Cc1cncc(-c2ccc(-c3cc4cnc(NC5CCOCC5)nc4n(Cc4ccccc4F)c3=O)c(Cl)c2)n1 [Example 36] |  |  |  | > 5000 nM | 50 to 500 nM | 50 to 500 nM | 50 to 500 nM
31 | CCn1c(=O)c(-c2ccc(-c3cccnc3F)cc2Cl)cc2cnc(NC3CCOCC3)nc21 [Example 12] |  |  |  | > 5000 nM | < 50 nM | 50 to 500 nM | < 50 nM
32 | CCn1c(=O)c(-c2ccc(-c3cccnc3)cc2Cl)cc2cnc(NC3CCOCC3)nc21 [Example 44] |  |  |  | > 5000 nM | 50 to 500 nM | 50 to 500 nM | 50 to 500 nM
33 | CCn1c(=O)c(-c2ccc(-c3cccnc3C)cc2Cl)cc2cnc(N[C@@H]3CCOC3)nc21 [Example 59] |  |  |  | > 5000 nM | 500 to 5000 nM | 500 to 5000 nM | 500 to 5000 nM
34 | CCn1c(=O)c(-c2ccc(-c3cncc(C)n3)cc2Cl)cc2cnc(NCCOCCN(C)C)nc21 [Example 127, 6-(2-chloro-4-(6-methylpyrazin-2-yl)phenyl)-2-((2-(2-(dimethylamino)ethoxy)ethyl)amino)-8-ethylpyrido[2,3-d]pyrimidin-7(8H)-one] |  |  |  | > 5000 nM | 50 to 500 nM | 50 to 500 nM | 50 to 500 nM
35 | CCn1c(=O)c(-c2cc(C)c(-c3cncc(C)n3)cc2Cl)cc2cnc(N[C@@H]3CCOC3)nc21 [Example 71] |  |  |  | > 5000 nM | < 50 nM | < 50 nM | 50 to 500 nM
